≈ marks a conversion by molar mass, not a printed value. Where two headings read alike, the source gives them in different places.
How the values were obtained:
[1] = tested on: A. baumannii; assay: Immunocompetent mouse septicaemia infection model; assay type: in vivo; conditions: for Survivors, individual mouse status: ACC00445 septicaemia, 80 mg/kg
Procedure: Septicaemia was induced in CD-1 immunocompetent male mice by an intraperitoneal inoculation of a bacterial suspension of the tested A. baumannii isolate at a challenge of approximately 1–2 log[CFU] above the determined median lethal dose (resulting in 10^5 to 10^7 CFU per mouse). […] Mouse survival was followed over 6–7 days. GraphPad Prism 8 was used for graphical presentation of the data. Septicaemia studies with mutant derivative isolates obtained in resistance studies were performed as described above, using a bacterial challenge as determined for the parental isolate.

[2] = tested on: A. baumannii; assay: microbe, parasite or virus in culture; conditions: for MIC90 / MIC: Acinetobacter baumannii
How it was run: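 CLSI broth microdilution (M07/M100); inoculum from 0.5 McFarland suspension diluted in CAMHB; MIC = lowest concentration with no visible growth or where OD600 stops falling.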

**Q.** What does the source list for `C[C@@H](O)[C@H]1C(=O)N2C(C(=O)O)=C(S[C@@H]3CN[C@H](C(=O)N(C)C)C3)[C@H](C)[C@H]12` [meropenem, reference compound]?
**A.** Survivors, individual mouse status ([1]; Day 1): 1; Survivors, individual mouse status ([1]; Day 2): 1; Survivors, 2016-02-03 ([1]; murine septicaemia, MDR A. baumannii APV00535 (ACC00535), Meropenem 80 mg/kg, mark per mouse (10 mice), study VDD3948): 1; MIC range ([2]; 10 MDR isolates, CAMHB, MCPs read at 80% growth inhibition): 1 to 64 µg/mL; MIC90 [2]: 64 µg/mL (≈ 167 µM); MIC90 ([2]; 129 clinical isolates, CAMHB): > 16 µg/mL; MIC ([2]; ACC00445, CAMHB, MCPs read at 80% inhibition): > 16 µg/mL; MIC ([2]; ACC00535, CAMHB, MCPs read at 80% inhibition): > 16 µg/mL; MIC ([2]; ACC01073, CAMHB, MCPs read at 80% inhibition): 16 µg/mL (≈ 41.7 µM); MIC ([2]; ACC01077, CAMHB, MCPs read at 80% inhibition): > 16 µg/mL; MIC ([2]; ACC01085 / AR0307, CAMHB, MCPs read at 80% inhibition): 8 µg/mL (≈ 20.9 µM); MIC ([2]; ATCC17978, ATCC 17978, CAMHB, MCPs read at 80% inhibition): 0.25 µg/mL (≈ 0.652 µM); MIC ([2]; ATCC17978, ATCC 17978, CAMHB, one replicate, MCPs read at 80% growth inhibition): 0.5 µg/mL (≈ 1.3 µM); MIC ([2]; ATCC17978, read-out: MIC 100%, ATCC 17978, Study LGC301026, 100%): 0.25 µg/mL (≈ 0.652 µM); MIC ([2]; ATCC17978, read-out: MIC 100%, ATCC 17978, Study LGC308175, 100%): 0.5 µg/mL (≈ 1.3 µM); MIC ([2]; ATCC19606, ATCC 19606, CAMHB, MCPs read at 80% growth inhibition): 1 µg/mL (≈ 2.61 µM); MIC ([2]; ATCC19606, ATCC 19606, CAMHB, MCPs read at 80% inhibition): 1 µg/mL (≈ 2.61 µM); MIC ([2]; ATCC19606, read-out: MIC 100%, ATCC 19606, Study LGC277937, 100%): 1 µg/mL (≈ 2.61 µM); MIC ([2]; ATCC19606, read-out: MIC 100%, ATCC 19606, Study LGC279800, 100%): 1 µg/mL (≈ 2.61 µM); MIC ([2]; ATCC19606, read-out: MIC 100%, ATCC 19606, Study LGC281440, 100%): 1 µg/mL (≈ 2.61 µM); MIC ([2]; ATCC19606, read-out: MIC 100%, ATCC 19606, Study LGC282160, 100%): 1 µg/mL (≈ 2.61 µM); MIC ([2]; ATCC19606, read-out: MIC 100%, ATCC 19606, Study LGC282623, 100%): 0.5 µg/mL (≈ 1.3 µM); MIC ([2]; ATCC19606, read-out: MIC 100%, ATCC 19606, Study LGC283932, 100%): 1 µg/mL (≈ 2.61 µM); MIC ([2]; ATCC19606, read-out: MIC 100%, ATCC 19606, Study LGC284200, 100%): 1 µg/mL (≈ 2.61 µM); MIC ([2]; ATCC19606, read-out: MIC 100%, ATCC 19606, Study LGC284879, 100%): 4 µg/mL (≈ 10.4 µM); MIC ([2]; ATCC19606, read-out: MIC 100%, ATCC 19606, Study LGC285582, 100%): 4 µg/mL (≈ 10.4 µM); MIC ([2]; ATCC19606, read-out: MIC 100%, ATCC 19606, Study LGC286210, 100%): 2 µg/mL (≈ 5.22 µM); MIC ([2]; ATCC19606, read-out: MIC 100%, ATCC 19606, Study LGC293598, 100%): 2 µg/mL (≈ 5.22 µM); MIC ([2]; ATCC19606, read-out: MIC 100%, ATCC 19606, Study LGC294355, 100%): 2 µg/mL (≈ 5.22 µM); MIC ([2]; ATCC19606, read-out: MIC 100%, ATCC 19606, Study LGC295147, 100%): 2 µg/mL (≈ 5.22 µM); MIC ([2]; ATCC19606, read-out: MIC 100%, ATCC 19606, Study LGC296813, 100%): 2 µg/mL (≈ 5.22 µM); MIC ([2]; ATCC19606, read-out: MIC 100%, ATCC 19606, Study LGC299544, 100%): 4 µg/mL (≈ 10.4 µM); MIC ([2]; ATCC19606, read-out: MIC 100%, ATCC 19606, Study LGC301026, 100%): 4 µg/mL (≈ 10.4 µM); MIC ([2]; ATCC19606, read-out: MIC 100%, ATCC 19606, Study LGC308175, 100%): 1 µg/mL (≈ 2.61 µM); MIC ([2]; ATCC19606, read-out: MIC 100%, ATCC 19606, Study ROC003, 100%): 1 µg/mL (≈ 2.61 µM); MIC ([2]; ATCC19606, read-out: MIC 100%, ATCC 19606, Study ROC004, 100%): 1 µg/mL (≈ 2.61 µM); MIC ([2]; ATCC19606, read-out: MIC 100%, ATCC 19606, Study ROC005, 100%): 1 µg/mL (≈ 2.61 µM); MIC ([2]; ATCC19606, read-out: MIC 100%, ATCC 19606, Study ROC006, 100%): 1 µg/mL (≈ 2.61 µM); MIC ([2]; ATCC19606, read-out: MIC 100%, ATCC 19606, Study ROC007, 100%): 2 µg/mL (≈ 5.22 µM); MIC ([2]; ATCC19606, read-out: MIC 100%, ATCC 19606, Study ROC008, 100%): 1 µg/mL (≈ 2.61 µM); MIC ([2]; ATCC19606, read-out: MIC 100%, ATCC 19606, Study ROC009, 100%): 2 µg/mL (≈ 5.22 µM); MIC ([2]; ATCC19606, read-out: MIC 100%, ATCC 19606, Study ROC010, 100%): 2 µg/mL (≈ 5.22 µM); MIC ([2]; ATCC19606, read-out: MIC 100%, ATCC 19606, Study ROC012, 100%): 0.5 µg/mL (≈ 1.3 µM); MIC ([2]; ATCC19606, read-out: MIC 100%, ATCC 19606, Study ROC013, 100%): 4 µg/mL (≈ 10.4 µM); MIC ([2]; ATCCBAA747, ATCC BAA-747, CAMHB, MCPs read at 80% inhibition): 0.12 µg/mL (≈ 0.313 µM); MIC ([2]; ROB08701, CAMHB, MCPs read at 80% inhibition): 1 µg/mL (≈ 2.61 µM); MIC ([2]; ROB08702, CAMHB, MCPs read at 80% inhibition): > 16 µg/mL; MIC ([2]; ROB08703, CAMHB, MCPs read at 80% inhibition): > 16 µg/mL; MIC ([2]; ROB08704, CAMHB, MCPs read at 80% inhibition): > 16 µg/mL; MIC ([2]; ROB08705, CAMHB, MCPs read at 80% inhibition): > 16 µg/mL; MIC ([2]; ROB08706, CAMHB, MCPs read at 80% inhibition): > 16 µg/mL; MIC ([2]; ROB08707, CAMHB, MCPs read at 80% inhibition): > 16 µg/mL; MIC ([2]; ROB08708, CAMHB, MCPs read at 80% inhibition): 16 µg/mL (≈ 41.7 µM); MIC ([2]; ROB08709, CAMHB, MCPs read at 80% inhibition): > 16 µg/mL; MIC ([2]; ROB08710, CAMHB, MCPs read at 80% inhibition): > 16 µg/mL; MIC ([2]; read-out: MIC 100%, ROB08701, Study LGC277937, 100%): 1 µg/mL (≈ 2.61 µM); MIC ([2]; read-out: MIC 100%, ROB08701, Study LGC279800, 100%): 1 µg/mL (≈ 2.61 µM); MIC ([2]; read-out: MIC 100%, ROB08701, Study LGC281440, 100%): 1 µg/mL (≈ 2.61 µM); MIC ([2]; read-out: MIC 100%, ROB08701, Study LGC282160, 100%): 1 µg/mL (≈ 2.61 µM); MIC ([2]; read-out: MIC 100%, ROB08701, Study LGC282623, 100%): 1 µg/mL (≈ 2.61 µM); MIC ([2]; read-out: MIC 100%, ROB08701, Study LGC283932, 100%): 1 µg/mL (≈ 2.61 µM); MIC ([2]; read-out: MIC 100%, ROB08701, Study LGC284200, 100%): 32 µg/mL (≈ 83.4 µM); MIC ([2]; read-out: MIC 100%, ROB08701, Study LGC284879, 100%): 1 µg/mL (≈ 2.61 µM); MIC ([2]; read-out: MIC 100%, ROB08701, Study LGC285582, 100%): 1 µg/mL (≈ 2.61 µM); MIC ([2]; read-out: MIC 100%, ROB08701, Study LGC286210, 100%): 1 µg/mL (≈ 2.61 µM); MIC ([2]; read-out: MIC 100%, ROB08701, Study LGC293598, 100%): 2 µg/mL (≈ 5.22 µM); MIC ([2]; read-out: MIC 100%, ROB08701, Study LGC294355, 100%): 1 µg/mL (≈ 2.61 µM); MIC ([2]; read-out: MIC 100%, ROB08701, Study LGC295147, 100%): 1 µg/mL (≈ 2.61 µM); MIC ([2]; read-out: MIC 100%, ROB08701, Study LGC296813, 100%): 2 µg/mL (≈ 5.22 µM); MIC ([2]; read-out: MIC 100%, ROB08701, Study LGC299544, 100%): 1 µg/mL (≈ 2.61 µM); MIC ([2]; read-out: MIC 100%, ROB08701, Study LGC301026, 100%): 1 µg/mL (≈ 2.61 µM); MIC ([2]; read-out: MIC 100%, ROB08701, Study LGC308175, 100%): 1 µg/mL (≈ 2.61 µM); MIC ([2]; read-out: MIC 100%, ROB08701, Study ROC003, 100%): 1 µg/mL (≈ 2.61 µM); MIC ([2]; read-out: MIC 100%, ROB08701, Study ROC004, 100%): 1 µg/mL (≈ 2.61 µM); MIC ([2]; read-out: MIC 100%, ROB08701, Study ROC005, 100%): 1 µg/mL (≈ 2.61 µM); MIC ([2]; read-out: MIC 100%, ROB08701, Study ROC006, 100%): 1 µg/mL (≈ 2.61 µM); MIC ([2]; read-out: MIC 100%, ROB08701, Study ROC007, 100%): 1 µg/mL (≈ 2.61 µM); MIC ([2]; read-out: MIC 100%, ROB08701, Study ROC008, 100%): 1 µg/mL (≈ 2.61 µM); MIC ([2]; read-out: MIC 100%, ROB08701, Study ROC009, 100%): 1 µg/mL (≈ 2.61 µM); MIC ([2]; read-out: MIC 100%, ROB08701, Study ROC010, 100%): 1 µg/mL (≈ 2.61 µM)

Source: article PMC10794144, “A novel antibiotic class targeting the lipopolysaccharide transporter” (Nature, 2024)
